Reference: patent US20090023735A1, “Sulphonamide Derivatives” (priority 2005, published 2009)
Structures can show the parent of a compound that is named as a salt.

Columns and labels:
[1] = tested on: Prostate cancer cells (PC-3); experiment: Cell invasion assay: invasion of PC-3 cells through Matrigel; details: Homo sapiens, PC-3, 72 h, read-out: EC50 in cell invasion (μM)
Protocol: Prostate cancer cells (PC-3) expressing α2β1 endogenously were used to test the in vitro anticancer potential of the inhibitors of the present invention.
Inserts were stored at −20° C. Before the experiments inserts were allowed to adjust to the room temperature. 500 μl of serum free media (Ham's F12K medium, 2 mM L-glutamine, 1.5 g/l sodium bicarbonate) was added into the inserts and allowed to rehydrate at 37° C. in cell incubator for two hours. The remaining media was aspirated. PC-3 cells were detached, pelleted and suspended into serum free media (50000 cells/500 μl). 300 μl of cell suspension was added into the insert in the absence (control) or presence of the inhibitor according to the present invention. Inserts were placed on the 24-well plates; each well containing 700 μl of cell culture media with 3% of fetal bovine serum as chemo-attractant. Cells were allowed to invade for 72 hours at 37° C. in cell incubator. Inserts were washed with 700 μl PBS, and fixed with 4% paraformaldehyde for 10 minutes. Paraformaldehyde was aspirated and cells were washed with 700 μl of PBS and inserts were stained by incubation with hematoxylin for 1 minute. The stain was removed by washing the inserts with 700 μl of PBS. Inserts were allowed to dry. Fixed invaded cells were calculated under the microscope. Invasion % was calculated as a comparison to the control.

α2β1 integrin = target: T1, α2β1 integrin (Homo sapiens, UniProt P17301); experiment: CHO-α2β1 cell adhesion on type I collagen; type: cell-based; details: CHO cells expressing wild type α2 integrin on collagen type I coated wells, 2 h
T1 construct: expressed in transfected cells; host or cells: CHO cell clone
T1 sequence (P17301 30-1181): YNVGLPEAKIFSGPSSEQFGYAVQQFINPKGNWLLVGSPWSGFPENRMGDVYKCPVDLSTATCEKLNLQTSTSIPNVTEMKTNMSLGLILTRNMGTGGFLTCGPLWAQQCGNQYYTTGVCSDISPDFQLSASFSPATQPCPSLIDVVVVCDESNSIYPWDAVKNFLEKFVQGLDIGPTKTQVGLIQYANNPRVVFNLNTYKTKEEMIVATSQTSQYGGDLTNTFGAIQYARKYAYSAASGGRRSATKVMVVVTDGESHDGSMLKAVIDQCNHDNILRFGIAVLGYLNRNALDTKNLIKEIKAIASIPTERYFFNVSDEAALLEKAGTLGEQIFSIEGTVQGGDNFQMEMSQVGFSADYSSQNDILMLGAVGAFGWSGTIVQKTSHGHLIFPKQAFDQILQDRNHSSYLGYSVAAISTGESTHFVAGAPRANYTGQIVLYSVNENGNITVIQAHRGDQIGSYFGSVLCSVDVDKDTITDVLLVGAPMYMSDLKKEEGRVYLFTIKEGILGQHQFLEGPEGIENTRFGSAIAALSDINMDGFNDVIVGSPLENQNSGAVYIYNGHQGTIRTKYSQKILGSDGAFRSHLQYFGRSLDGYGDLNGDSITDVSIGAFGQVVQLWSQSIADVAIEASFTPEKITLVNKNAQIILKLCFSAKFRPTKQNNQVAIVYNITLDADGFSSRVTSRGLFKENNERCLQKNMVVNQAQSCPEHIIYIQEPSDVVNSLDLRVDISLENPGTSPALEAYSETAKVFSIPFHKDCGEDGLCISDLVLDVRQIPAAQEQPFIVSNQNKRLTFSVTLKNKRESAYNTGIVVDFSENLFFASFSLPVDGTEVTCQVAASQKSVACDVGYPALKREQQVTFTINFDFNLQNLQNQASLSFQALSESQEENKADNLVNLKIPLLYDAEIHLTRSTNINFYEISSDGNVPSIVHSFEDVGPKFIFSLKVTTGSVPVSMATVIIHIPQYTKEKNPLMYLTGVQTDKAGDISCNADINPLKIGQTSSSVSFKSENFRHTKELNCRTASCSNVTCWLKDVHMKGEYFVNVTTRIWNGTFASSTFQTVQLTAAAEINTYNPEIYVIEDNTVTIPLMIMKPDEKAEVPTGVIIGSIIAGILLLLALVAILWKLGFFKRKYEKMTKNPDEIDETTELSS
Protocol: Chinese Hamster Ovary (CHO) cell clone expressing wild type α2 integrin was used in cell adhesion assay. Cells were suspended in serum free medium containing 0.1 mg/ml cycloheximide (Sigma) and the compounds were preincubated with the cells prior to transfer to the wells. Cells (150000/well) were allowed to attach on collagen type I coated wells (in the presence and absence of inhibitor compounds) for 2 h at +37° C. and after that non-adherent cells were removed. Fresh serum free medium was added and the living cells were detected using a cell viability kit (Roche) according to the manufacturer's protocol.

[2] = tested on: platelet aggregation in whole blood; details: PFA-100, collagen plus Epinephrin membrane, compared to control (DMSO), FIG. 1
Protocol: The PFA-100 is a high shear-inducing device that simulates primary haemostasis after injury of a small vessel. The system comprises a test-cartridge containing a biologically active membrane coated with collagen plus Epinephrin. An anticoaculated whole blood sample was run through a capillary under a constant vacuum. […] The time required to obtain full occlusion of the aperture was designated as the “closure time”. Each compound was added to the whole blood sample and the closure time was measured with PFA-100.
Blood was collected from a donor via venipuncture into evacuated blood collection tubes containing 3.2% buffered sodium sitrate as anticoagulant. Blood was aliquoted into 15 mL tubes and treated with either inhibitory compounds or controls (DMSO). Samples were kept at room temperature with rotation for 10 minutes and after that the closure time of the blood was measured.
Acquisitions resulting in a closure time exceeding the range of measurement of the instrument (>300 seconds) were assigned a value of 300 seconds. Mean and standard deviations were calculated for each treatment. Student's t-test was applied to the resultant data.

| inhibition at 50 µM (α2β1 integrin) | Structure (SMILES) | further results |
| --- | --- | --- |
| 58% | N#Cc1ccc(NS(=O)(=O)c2cccc(-c3ccc(F)cc3)c2)cc1 [Compound 448, 4′-fluoro-biphenyl-3-sulfonic acid (4-cyano-phenyl)-amide] | EC50 [1]: 27 µM |
| 13% | Cc1cc(NC(=O)c2ccc(NS(=O)(=O)c3cccc(-c4ccc(F)cc4)c3)cc2)no1 [Compound 456, 4-(4′-fluoro-biphenyl-3-sulfonylamino)-N-(5-methyl-isoxazol-3-yl)-benzamide] | – |
| 22% | O=S(=O)(Nc1ccc(-c2cnco2)cc1)c1cccc(-c2ccc(F)cc2)c1 [Compound 378, 4′-fluoro-biphenyl-3-sulfonic acid (4-(1,3-oxazol-5-yl)-phenyl)-amide] | – |
| 71% | CN(C)c1ccc(N(CCn2ccnc2)S(=O)(=O)c2cccc(-c3ccc(F)cc3)c2)cc1 [Compound 358, 4′-fluoro-biphenyl-3-sulfonic acid (4-dimethylamino-phenyl)-(2-imidazol-1-yl-ethyl)-amide] | – |
| 56% | O=S(=O)(Nc1cccc(-c2ccc(F)cc2)c1)c1ccc(Cl)cc1Cl [Compound 403, 2,4-cichlorophenylsulfonic acid (3-(4-fluorophenyl)phenyl)-amide] | – |
| 66% | O=C(c1ccc(F)cc1)c1ccc(NS(=O)(=O)c2cccc(-c3ccc(F)cc3)c2)cc1 [Compound 458, 4′-fluoro-biphenyl-3-sulfonic acid [4-((4-fluorophenyl)-4-carbonyl)-phenyl]-amide] | – |
| – | O=C(c1ccccc1)c1ccc(NS(=O)(=O)c2cccc(-c3ccc(F)cc3)c2)cc1 [Compound 434, 4′-fluoro-biphenyl-3-sulfonic acid (4-benzoyl-phenyl)-amide sodium salt] | inhibition at 50 µM (α2β1 integrin; CHO): 78%; closure time of the blood [2]: increase the closure time |
| 78% | CN(C)CCN(c1ccc(N(C)C)cc1)S(=O)(=O)c1cccc(-c2ccc(F)cc2)c1 [Compound 354, 4′-fluoro-biphenyl-3-sulfonic acid (2-dimethylamino-ethyl)-(4-dimethylamino-phenyl)-amide] | – |
| 18% | CN(C)c1ccc(N(CCN2CCOCC2)S(=O)(=O)c2cccc(-c3ccc(F)cc3)c2)cc1 [Compound 355, 4′-fluoro-biphenyl-3-sulfonic acid (4-dimethylamino-phenyl)-(2-morpholin-4-yl-ethyl)-amide] | – |
| 42% | CN(C)c1ccc(N(CCO)S(=O)(=O)c2cccc(-c3ccc(F)cc3)c2)cc1 [Compound 359, 4′-fluoro-biphenyl-3-sulfonic acid (4-dimethylamino-phenyl)-(2-hydroxy-ethyl)-amide] | – |
| 11% | COCCN(c1ccc(N(C)C)cc1)S(=O)(=O)c1cccc(-c2ccc(F)cc2)c1 [Compound 353, 4′-fluoro-biphenyl-3-sulfonic acid (4-dimethylamino-phenyl)-(2-methoxy-ethyl)-amide] | – |
| 21% | Cn1cccc1C(=O)Nc1ccc(NS(=O)(=O)c2cccc(-c3ccc(F)cc3)c2)cc1 [Compound 442, 1-methyl-1H-pyrrole-2-carboxylic acid [4-(4′-fluoro-bi-phenyl-3-sulfonylamino)-phenyl]-amide] | – |
| 59% | O=[N+]([O-])c1ccc(NS(=O)(=O)c2cccc(-c3ccc(F)cc3)c2)cc1 [Compound 440, 4′-fluoro-biphenyl-3-sulfonic acid (4-nitro-phenyl)-amide] | EC50 [1]: 8.3 µM |
| 53% | CN(c1ccc(NC(=O)N2CCNC2=O)cc1)S(=O)(=O)c1cccc(-c2ccc(F)cc2)c1 [Compound 430, 2-oxo-imidazolidine-1-carboxylic acid {4-[(4′-fluoro-bi-phenyl-3-sulfonyl)-methyl-amino]-phenyl)-amide] | EC50 [1]: 12 µM |
| 26% | CC(=O)c1ccc(NS(=O)(=O)c2cccc(-c3ccc(F)cc3)c2)cc1 [Compound 383, 4′-fluoro-biphenyl-3-sulfonic acid (4-acetyl-phenyl)-amide] | – |
| 72% | O=C(c1ccccc1)c1cccc(NS(=O)(=O)c2cccc(-c3ccc(F)cc3)c2)c1 [Compound 432, 4′-fluoro-biphenyl-3-sulfonic acid (3-benzoyl-phenyl)-amide] | EC50 [1]: 1 µM |

| Structure (SMILES) | inhibition at 50 µM (α2β1 integrin) | further results |
| --- | --- | --- |
| O=C(c1ccccc1)c1ccc(NS(=O)(=O)c2cccc(-c3ccc(F)cc3)c2)cc1 [Compound 384, 4′-fluoro-biphenyl-3-sulfonic acid (4-benzoyl-phenyl)-amide] | 65% | – |
